The record followed here is patent US8252737B2, “Antimicrobial peptides and methods of use” (priority 2004, dated 2012).

Converted amounts (≈) assume the structure as drawn.

One series relates to human erythrocytes. Kind of series: Hemolytic activity (MHC), Protocol B, 18 hours. The settings on record: maximal peptide concentration showing no hemolysis after 18 hours, hRBC, Table 14. How it is done:
In order to evaluate the biological activities of the D-enantiomeric peptides, namely D-NAL and D-NKD, the hemolytic activity of the peptides against human erythrocytes was determined as the maximal peptide concentration that produces no hemolysis after 18 hours of incubation at 37° C.
Measurement of Hemolytic Activity—Protocol A: Peptide samples were added to 1% human erythrocytes in phosphate buffered saline (0.08M NaCl; 0.043M Na2PO4; 0.011M KH2PO4) and reactions were incubated at 37° C. for 12 hours in microtiter plates. Peptide samples were diluted 2 fold in order to determine the concentration that produced no hemolysis. […] Hemoglobin release was determined spectrophotometrically at 562 nm. The hemolytic titer was the highest 2-fold dilution of the peptide that still caused release of hemoglobin from erythrocytes. The control for no release of hemoglobin was a sample of 1% erythrocytes without any peptide added. […] Peptide samples were diluted 2 fold in order to determine the concentration that produced no hemolysis. […] Hemoglobin release was determined spectrophotometrically at 570 nm. The hemolytic titer was the highest 2-fold dilution of the peptide that still caused release of hemoglobin from erythrocytes. The control for no release of hemoglobin was a sample of 1% erythrocytes without any peptide added.

The subject of series [1] is Pseudomonas aeruginosa strains. The settings on record: for MIC (μg/ml) CP 204: Pseudomonas aeruginosa clinical isolate CP 204; for MIC (μg/ml) M 2: Pseudomonas aeruginosa clinical isolate M 2; for MIC (μg/ml) PA 14: Pseudomonas aeruginosa clinical isolate PA 14; for MIC (μg/ml) PAK: Pseudomonas aeruginosa clinical isolate PAK; for MIC (μg/ml) PAO 1: Pseudomonas aeruginosa clinical isolate PAO 1; for MIC (μg/ml) WR 5: Pseudomonas aeruginosa clinical isolate WR 5; for MIC (μg/ml) GM: geometric mean of the MIC values for the 6 Pseudomonas aeruginosa clinical isolates. How it is done: Pseudomonas aeruginosa strains used in this study are a diverse group of clinical isolates from different places in the world. […] The geometric mean MIC values from six Pseudomonas aeruginosa strains were calculated to provide an overall evaluation of antimicrobial activity of these peptides against Pseudomonas aeruginosa. Fold improvement was calculated by comparing the geometric mean MIC value of each peptide to that of the parent peptide V681.
Measurement of Antimicrobial Activity—Minimal inhibitory concentrations (MICs) were determined using a standard microtiter dilution method in LB (Luria-Bertani) no-salt medium (10 g of tryptone and 5 g of yeast extract per liter). Briefly, cells were grown overnight at 37° C. in LB and diluted in the same medium. […] Plates were incubated at 37° C. for 24 hours and MICs determined as the lowest peptide concentration that inhibited growth. Alternatively, minimal inhibitory concentrations were determined using a standard microtiter dilution method in a Mueller-Hinton (MH) medium. Briefly, cells were grown overnight at 37° C. in MH broth and diluted in the same medium. […] Plates were incubated at 37° C. for 24 hours and MICs determined as the lowest peptide concentration that inhibited growth. However, for MIC determination of Pseudomonas aeruginosa clinical isolates, brain heart infusion (BH1) medium was used instead of MH broth. In addition, the bacteria were diluted to a final inoculum of 1×10^6 colony-forming units/ml.
For the Leu-substituted peptides, the hemolytic activity against human erythrocytes was determined as the maximal peptide concentration that produces no hemolysis after 18 hours of incubation at 37° C. Antimicrobial activity of the peptides was determined on a diverse group of Pseudomonas aeruginosa clinical isolates. […] The geometric mean MIC values from six Pseudomonas strains in Table 14 were calculated to provide an overall evaluation of antimicrobial activity of the peptides with different hydrophobicities.

As to `CC[C@H](C)[C@H](NC(=O)[C@H](C)NC(=O)[C@H](CCCCN)NC(=O)[C@H](CC(C)C)NC(=O)[C@H](C)NC(=O)[C@@H](NC(=O)[C@H](Cc1c[nH]cn1)NC(=O)[C@H](CC(C)C)NC(=O)[C@@H](NC(=O)[C@@H](NC(=O)[C@H](CCCCN)NC(=O)[C@H](CCCCN)NC(=O)[C@H](CC(C)C)NC(=O)[C@H](CO)NC(=O)[C@H](CCCCN)NC(=O)[C@H](Cc1ccccc1)NC(=O)[C@@H](NC(=O)[C@H](CCCCN)NC(=O)[C@H](CC(C)C)NC(=O)[C@H](Cc1ccccc1)NC(=O)[C@H](CO)NC(=O)[C@H](CCCCN)NC(=O)[C@H](Cc1c[nH]c2ccccc12)NC(=O)[C@H](CCCCN)NC(C)=O)[C@@H](C)O)[C@@H](C)O)C(C)C)[C@@H](C)O)C(=O)N[C@@H](CO)C(=O)N[C@@H](CO)C(N)=O` [Peptide A12L], in the series on human erythrocytes, the “Hemolytic activity MHC” value came out at 31.3 µg/mL. For the same compound, in series [1], the “MIC (μg/ml) CP 204” value amounted to 15.6 µg/mL (≈ 5.14 µM), the “MIC (μg/ml) M 2” value amounted to 15.6 µg/mL (≈ 5.14 µM), the “MIC (μg/ml) PA 14” value stood at 31.3 µg/mL (≈ 10.3 µM) and the “MIC (μg/ml) PAK” value was found to be 31.3 µg/mL (≈ 10.3 µM). Moreover, in series [1], the “MIC (μg/ml) PAO 1” value came out at 15.6 µg/mL (≈ 5.14 µM), the “MIC (μg/ml) WR 5” value came to 62.5 µg/mL (≈ 20.6 µM) and the “MIC (μg/ml) GM” value turned out to be 24.8 µg/mL (≈ 8.18 µM).

Regarding `CC[C@H](C)[C@H](NC(=O)[C@H](CC(C)C)NC(=O)[C@H](CCCCN)NC(=O)[C@H](CC(C)C)NC(=O)[C@H](C)NC(=O)[C@@H](NC(=O)[C@H](Cc1c[nH]cn1)NC(=O)[C@H](CC(C)C)NC(=O)[C@@H](NC(=O)[C@@H](NC(=O)[C@H](CCCCN)NC(=O)[C@H](CCCCN)NC(=O)[C@H](CC(C)C)NC(=O)[C@H](CO)NC(=O)[C@H](CCCCN)NC(=O)[C@H](Cc1ccccc1)NC(=O)[C@@H](NC(=O)[C@H](CCCCN)NC(=O)[C@H](CC(C)C)NC(=O)[C@H](Cc1ccccc1)NC(=O)[C@H](CO)NC(=O)[C@H](CCCCN)NC(=O)[C@H](Cc1c[nH]c2ccccc12)NC(=O)[C@H](CCCCN)NC(C)=O)[C@@H](C)O)[C@@H](C)O)C(C)C)[C@@H](C)O)C(=O)N[C@@H](CO)C(=O)N[C@@H](CO)C(N)=O` [A12L/A23L], the “Hemolytic activity MHC” value in the series on human erythrocytes was determined as 15.6 µg/mL. Besides, in series [1], the “MIC (μg/ml) CP 204” value was 7.8 µg/mL (≈ 2.54 µM), the “MIC (μg/ml) M 2” value was 31.3 µg/mL (≈ 10.2 µM), the “MIC (μg/ml) PA 14” value was 62.5 µg/mL (≈ 20.3 µM) and the “MIC (μg/ml) PAK” value stood at 15.6 µg/mL (≈ 5.07 µM). Besides, in series [1], the “MIC (μg/ml) PAO 1” value was 15.6 µg/mL (≈ 5.07 µM), the “MIC (μg/ml) WR 5” value turned out to be 250.0 µg/mL (≈ 81.3 µM) and the “MIC (μg/ml) GM” value turned out to be 31.2 µg/mL (≈ 10.1 µM).

Regarding “Ac-KWKSFLKTFKSAKKTVLHTALKLISS-NH2 [Peptide A23L]”, in the series with human erythrocytes, the “Hemolytic activity MHC” value amounted to 62.5 µg/mL. Moreover, in series [1], the “MIC (μg/ml) CP 204” value stood at 15.6 µg/mL, the “MIC (μg/ml) M 2” value is 31.3 µg/mL, the “MIC (μg/ml) PA 14” value was found to be 31.3 µg/mL and the “MIC (μg/ml) PAK” value turned out to be 62.5 µg/mL. Also, in series [1], the “MIC (μg/ml) PAO 1” value was determined as 31.3 µg/mL, the “MIC (μg/ml) WR 5” value came out at 62.5 µg/mL and the “MIC (μg/ml) GM” value was determined as 35.1 µg/mL.
